Test results from PMC9189931 (Nature chemical biology, 2021).
“Also recorded” adds a separate entry of the source. Numbered stars: 1 amine (or outer) side, 2 acyl side, 3 side chain; on linkers, the order of the positions; unused ones are H or OH. Bridge positions count the residues as written; N and C are the ends. Square brackets hold non-standard residues; d marks the D form. Peptide text beside a SMILES is read from it. I, II: the chains in the order shown. Actinocin(9to1) = Cc1c2oc3c(C)ccc(C(=O)[*:1])c3nc-2c(C(=O)[*:2])c(N)c1=O; NMeV = CN[C@H](C(=O)O)C(C)C; Sar = CNCC(=O)O

What was measured:
[1] = biological target: T1, fl-NSD2 interaction with nucleosomal H3K36me2 (Homo sapiens, UniProt O96028); assay: AlphaScreen; format: binding; settings: read-out: IC50, disengagement of fl-NSD2 from nucleosomal H3K36me2, in the presence of SSD (2 μg ml^−1)
T1 sequence (O96028 1-1365): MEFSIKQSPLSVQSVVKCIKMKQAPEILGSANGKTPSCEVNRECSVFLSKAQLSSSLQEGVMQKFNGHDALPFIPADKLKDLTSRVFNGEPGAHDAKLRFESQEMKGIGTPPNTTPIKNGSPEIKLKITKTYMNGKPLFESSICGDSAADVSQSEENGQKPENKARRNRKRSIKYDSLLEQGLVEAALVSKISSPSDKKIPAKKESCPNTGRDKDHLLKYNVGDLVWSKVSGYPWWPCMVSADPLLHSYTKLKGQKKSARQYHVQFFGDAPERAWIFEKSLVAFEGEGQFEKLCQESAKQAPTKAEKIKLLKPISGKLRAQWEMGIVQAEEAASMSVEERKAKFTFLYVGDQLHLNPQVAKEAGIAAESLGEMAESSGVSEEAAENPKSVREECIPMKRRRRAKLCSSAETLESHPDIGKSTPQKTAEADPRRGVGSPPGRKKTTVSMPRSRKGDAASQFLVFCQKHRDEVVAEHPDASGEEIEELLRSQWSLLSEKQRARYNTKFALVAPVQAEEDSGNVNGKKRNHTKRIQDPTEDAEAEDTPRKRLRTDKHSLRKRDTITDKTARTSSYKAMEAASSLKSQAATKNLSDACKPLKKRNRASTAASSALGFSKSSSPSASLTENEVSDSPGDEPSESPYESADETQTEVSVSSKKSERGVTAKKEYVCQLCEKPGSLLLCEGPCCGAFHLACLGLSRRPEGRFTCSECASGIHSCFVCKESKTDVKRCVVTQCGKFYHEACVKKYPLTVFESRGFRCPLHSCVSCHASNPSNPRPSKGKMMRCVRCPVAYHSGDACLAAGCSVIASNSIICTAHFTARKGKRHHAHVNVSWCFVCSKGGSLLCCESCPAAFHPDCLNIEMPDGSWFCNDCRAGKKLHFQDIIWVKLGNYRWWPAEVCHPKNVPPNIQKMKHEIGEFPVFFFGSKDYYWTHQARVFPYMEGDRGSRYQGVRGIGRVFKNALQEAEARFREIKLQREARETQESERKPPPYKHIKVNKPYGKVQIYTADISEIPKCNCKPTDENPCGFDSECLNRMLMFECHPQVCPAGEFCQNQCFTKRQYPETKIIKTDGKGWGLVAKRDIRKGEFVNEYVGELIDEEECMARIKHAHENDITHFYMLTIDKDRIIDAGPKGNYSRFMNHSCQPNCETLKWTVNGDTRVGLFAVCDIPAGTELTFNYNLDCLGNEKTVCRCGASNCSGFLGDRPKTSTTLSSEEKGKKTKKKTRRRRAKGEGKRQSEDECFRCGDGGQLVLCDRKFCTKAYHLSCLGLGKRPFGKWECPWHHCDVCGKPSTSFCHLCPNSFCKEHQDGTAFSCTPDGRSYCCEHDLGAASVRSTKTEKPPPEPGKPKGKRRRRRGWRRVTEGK

[2] = tested on: 15 other human PWWP domains; settings: DSF, 100 μM compound
[3] = biological target: T2, endogenous NSD2 (Homo sapiens, UniProt O96028); assay: UNC7096 chemical pulldown and chemical proteomics in KMS-11 whole-cell lysates; format: binding
T2 sequence (O96028 1-627 limits assumed): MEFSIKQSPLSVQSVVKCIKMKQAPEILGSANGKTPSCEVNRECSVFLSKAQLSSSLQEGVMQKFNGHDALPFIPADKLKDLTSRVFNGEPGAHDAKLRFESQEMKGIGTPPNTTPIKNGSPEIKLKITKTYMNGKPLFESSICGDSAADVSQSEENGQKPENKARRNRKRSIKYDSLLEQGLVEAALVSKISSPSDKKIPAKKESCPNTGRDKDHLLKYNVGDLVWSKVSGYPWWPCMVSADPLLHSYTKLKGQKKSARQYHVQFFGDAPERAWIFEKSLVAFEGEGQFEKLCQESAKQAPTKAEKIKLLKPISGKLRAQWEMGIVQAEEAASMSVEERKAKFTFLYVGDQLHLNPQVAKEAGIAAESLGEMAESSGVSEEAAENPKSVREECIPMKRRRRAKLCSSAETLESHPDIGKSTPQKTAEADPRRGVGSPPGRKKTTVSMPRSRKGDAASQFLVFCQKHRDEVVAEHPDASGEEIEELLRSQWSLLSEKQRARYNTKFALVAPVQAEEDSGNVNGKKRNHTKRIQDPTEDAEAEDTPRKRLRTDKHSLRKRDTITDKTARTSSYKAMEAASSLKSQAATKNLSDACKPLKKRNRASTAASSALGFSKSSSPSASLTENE

[4] = biological target: T3, NSD2-PWWP1 interaction with nucleosomal H3K36me2 (Homo sapiens, UniProt O96028); assay: AlphaScreen; format: binding
T3 sequence (O96028 208-368): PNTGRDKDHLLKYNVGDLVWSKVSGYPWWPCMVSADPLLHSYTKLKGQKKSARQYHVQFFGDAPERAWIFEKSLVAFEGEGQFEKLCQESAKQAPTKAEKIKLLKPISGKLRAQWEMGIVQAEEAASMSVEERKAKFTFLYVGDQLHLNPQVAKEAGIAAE

[5] = tested on: panel of 33 methyltransferase domains, including NSD1, NSD2, NSD3 and SETD2; assay: Methyltransferase selectivity panel; format: biochemical; settings: 1 and 10 μM compound
[6] = tested on: ribosomal RNA (rRNA) transcription; assay: rRNA transcription; settings: for pre-rRNA expression levels by RT-qPCR: 5 μM compound at 2, 4, or 16 hours
[7] = tested on: global H3K36 methylation in KMS-11 cells; assay: Western blotting for global H3K36 methylation; format: cell-based; settings: 72 h
[8] = tested on: endogenous NSD2 localization in U2OS cells; assay: Confocal microscopy of endogenous NSD2 nucleolar localization; format: cell-based; settings: 4 h; for steady-state pool of nucleolar NSD2 under nucleolar perturbation: actinomycin D 50 nM, doxorubicin 1 μM
[9] = tested on: adherent or hematopoietic malignancy cell lines; assay: Cytotoxicity profiling; format: cell-based; settings: up to 5 μM over 3–12 d
[10] = biological target: T4, dsDNA binding to NSD2-PWWP1 (Homo sapiens, UniProt O96028); assay: Fluorescence polarization DNA binding and displacement assay; settings: FP
T4 sequence (O96028 208-368): T3 sequence (O96028 208-368)

[11] = biological target: T5, NSD2-PWWP1 (Homo sapiens, UniProt O96028); assay: SPR binding to immobilized NSD2-PWWP1
T5 sequence (O96028 208-368): T3 sequence (O96028 208-368)

[12] = biological target: T6, NSD3-PWWP1 interaction with histone H3.3 (Homo sapiens, UniProt Q9BZ95); assay: NanoBRET PPI assay, NSD3-PWWP1; format: cell-based; settings: U2OS cells, 10 μM compound
T6 sequence (Q9BZ95 270-333 limits assumed): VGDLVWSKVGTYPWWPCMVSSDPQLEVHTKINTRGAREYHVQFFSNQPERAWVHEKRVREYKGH

[13] = tested on: mRNA levels of NSD2 target genes in KMS-11 cells; assay: RT-qPCR of NSD2 target genes; format: cell-based; settings: 5 μM, 72 h
[14] = tested on: NSD2-GFP localization in U2OS cells; assay: Nucleolar colocalization of GFP-tagged NSD2 WT and mutants with RFP-fibrillarin; format: cell-based; settings: 4 h, 5 μM compound
[15] = tested on: loci-specific H3K36me2 levels in KMS-11 cells; assay: H3K36me2 ChIP-qPCR; format: cell-based; settings: 5 μM, 72 h
[16] = tested on: KMS-11 t(4; 14) MM cells; assay: Proliferation of KMS-11 cocultured with OP9 bone marrow stromal cells; format: cell-based; settings: 5 μM for 10 d before seeding on OP9
[17] = tested on: fl-NSD2 chromatin association in KMS-11 cells; assay: Cell fractionation, NSD2 release from chromatin; format: cell-based; settings: KMS-11 cell fractionation, 10 μM compound
[18] = biological target: human sodium-dependent serotonin transporter (Homo sapiens, UniProt P31645); assay: NIMH PDSP panel of CNS receptors, channels and transporters; format: binding
Chain of human sodium-dependent serotonin transporter (P31645 whole entry): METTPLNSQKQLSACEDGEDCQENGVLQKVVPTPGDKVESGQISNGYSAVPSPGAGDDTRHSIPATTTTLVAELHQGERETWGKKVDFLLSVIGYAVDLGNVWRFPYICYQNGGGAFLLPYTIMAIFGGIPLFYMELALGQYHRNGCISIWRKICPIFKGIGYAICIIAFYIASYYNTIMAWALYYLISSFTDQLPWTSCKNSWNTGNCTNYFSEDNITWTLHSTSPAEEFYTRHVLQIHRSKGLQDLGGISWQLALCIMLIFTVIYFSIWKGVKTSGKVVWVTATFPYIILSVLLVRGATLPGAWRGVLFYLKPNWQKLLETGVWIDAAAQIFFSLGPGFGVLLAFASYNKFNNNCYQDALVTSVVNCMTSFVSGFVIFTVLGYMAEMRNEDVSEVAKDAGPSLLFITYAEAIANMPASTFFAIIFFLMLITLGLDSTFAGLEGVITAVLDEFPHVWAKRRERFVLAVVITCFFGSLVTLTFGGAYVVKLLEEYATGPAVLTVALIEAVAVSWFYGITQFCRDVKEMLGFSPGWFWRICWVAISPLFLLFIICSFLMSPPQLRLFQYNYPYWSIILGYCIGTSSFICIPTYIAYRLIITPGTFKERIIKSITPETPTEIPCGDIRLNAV

CC(C)N(Cc1ccc(C(=O)Nc2ccncn2)cc1)C(=O)c1ccc2c(c1)OCC(=O)N2 [UNC7145]
IC50 [1]: 5.1 ± 1 µM
selectivity over other PWWP domains [2]: inactive
proteins depleted from UNC7096 pulldown by competition ([3]; label-free proteomics, 20 μM compound, relative to DMSO): did not considerably alter the enrichment profile
IC50, disruption of NSD2-PWWP1 interaction with nucleosomal H3K36me2 [4]: no measurable effect
inhibition of methyltransferases [5]: inactive
pre-rRNA expression levels by RT-qPCR [6]: no major effect
global H3K36 methylation [7]: no significant change
NSD2 signal within nucleoli ([8]; 5 μM compound): no effect
acute cytotoxic effects [9]: no acute cytotoxic effects
pattern of dsDNA binding to NSD2-PWWP1 in the presence of compound ([10]; 20 μM compound, NSD2-PWWP1 up to 2.5 μM): No significant difference
displacement of fluorescein-labelled dsDNA from NSD2-PWWP1 ([10]; compound up to 25 μM): no significant effect

COc1cccc2c1C(=O)c1c(O)c3c(c(O)c1C2=O)C[C@@](O)(C(=O)CO)C[C@@H]3O[C@H]1C[C@H](N)[C@H](O)[C@H](C)O1 [doxorubicin, reference compound]
steady-state pool of nucleolar NSD2 under nucleolar perturbation [8]: sensitive

O=C1COc2cc(C(=O)N(Cc3cccs3)C3CC3)ccc2N1 [MRT866]
Kd [11]: 0.349 ± 0.019 µM

O=C(CCCC[C@@H]1SC[C@@H]2NC(=O)N[C@@H]21)NCCOCCOCCOCCOCCOCCOCCOCCOCCOCCOCCOCCNC(=O)c1ccc(NC(=O)c2ccc(CN(C(=O)c3ccc4c(c3)OCC(=O)N4)C3CC3)cc2)cc1 [UNC7096]
enrichment of NSD2-short and NSD2-long isoforms by pulldown ([3]; KMS-11 whole-cell lysates, immunoblotting): efficiently enriched
Kd [11]: 0.046 µM

Cc1c2oc3c(C)ccc(C(=O)N[C@@H]4C(=O)N[C@H](C(C)C)C(=O)N5CCC[C@H]5C(=O)N(C)CC(=O)N(C)[C@@H](C(C)C)C(=O)O[C@@H]4C)c3nc-2c(C(=O)N[C@@H]2C(=O)N[C@H](C(C)C)C(=O)N3CCC[C@H]3C(=O)N(C)CC(=O)N(C)[C@@H](C(C)C)C(=O)O[C@@H]2C)c(N)c1=O [actinomycin D, reference compound] (I: T[dV]P[Sar][NMeV] / II: T[dV]P[Sar][NMeV]; ester I:1-I:C, II:1-II:C; linker I:N-II:N via Actinocin(9to1))
steady-state pool of nucleolar NSD2 under nucleolar perturbation [8]: sensitive

O=C1COc2cc(C(=O)N(Cc3ccc(C(=O)Nc4ccncn4)cc3)C3CC3)ccc2N1 [UNC6934]
BRET signal of NSD3-PWWP1 [12]: unaffected
inhibition of methyltransferases [5]: did not inhibit any
effect on ribosomal RNA (rRNA) transcription ([6]; 5 μM compound): no significant effect
pre-rRNA expression levels by RT-qPCR [6]: no major effect
mRNA levels of NSD2 target genes [13]: did not observe changes
nucleolar localization of PWWP1 aromatic cage mutant NSD2-GFP [14]: no further increase
nucleolar signal of WT NSD2-GFP [14]: increase in nucleolar signal
nucleolar colocalization of PHD2 and PWWP2 mutant NSD2-GFP ([14]; H762R, W894A): additive effect
loci-specific H3K36me2 levels [15]: did not observe changes
global H3K36 methylation [7]: no significant change; also recorded: no changes
NSD2 signal within nucleoli ([8]; 5 μM compound): increase in NSD2 signal within nucleoli
correlation (PCC) between NSD2 and fibrillarin signals ([8]; 5 μM compound): significant increase
proliferation of KMS-11 cells grown on bone marrow stroma [16]: no changes
release of fl-NSD2 from chromatin [17]: modest release
acute cytotoxic effects [9]: no acute cytotoxic effects
Ki [18]: 1.4 ± 0.8 µM
inhibition at 10 µM [18]: > 50%
